Measured values published in US20260345593A1, “ORAL FORMULATION OF N-PYRIDINYL ACETAMIDE DERIVATIVE FOR TREATING INTERSTITIAL LUNG DISEASE” (AstraZeneca AB, priority 2022, published 2026).
pIC50: −log10 of the molar value. Read-outs that look alike come from different tables or passages of the source.

Key:
[1] = predicted human absorption, clearance and bioavailability
Procedure: Based on in vitro data, the predicted human oral bioavailability is 70%. The observed oral bioavailability in several animal species is in the range 40% to 60%.
Therefore, a conservative estimate is that Cmax following an IV infusion over 20 minutes is less than 2-fold higher compared to an oral dose, after correcting for F.

[2] = tested on: β-catenin reporter; conditions: β-catenin reporter assay, rodent cells (Bunyard 2019); read-out: in vitro IC50; cited from earlier work
[3] = Example 1, first clinical study: pharmacokinetics in healthy subjects; type: in vivo, human; conditions: for half-life / Tmax: in vivo; for half-life: read-out: geometric mean terminal half-life
Procedure: This study is in two parts—part 1 involves testing a single ascending dose, whilst part 2 involves testing multiple ascending doses.
Part 1 comprises a Screening Period of a maximum of 6 weeks. This is followed by a Treatment Period during which subjects are resident at the Clinical Unit from 1 day before investigational medicinal product (IMP) administration (Day −1) until at least 72 hours after IMP administration (Day 4). Subjects receive a single oral dose of AZD5055 or placebo on Day 1. This is followed by a Follow-up Visit within 6±1 day after the IMP dose.
Part 2 comprises a Screening Period of a maximum of 6 weeks. This is followed by a treatment period during which subjects are resident at the Clinical Unit from 1 day before IMP administration (Day −1) until at least 72 hours after the last dose given on Day 16 (Day 19). Subjects are dosed for a total of 15 days and receive a single once daily morning dose of AZD5055 or placebo on Day 1 and on Days 3 through Day 16, with no dosing on Day 2. This is followed up a Follow-up Visit within 6±1 day after the IMP dose, and an additional Follow-up Visit within 29±2 days after the last IMP dose.
For cohorts with QD dosing regimens, the Screening Period is followed by a Treatment Period during which subjects are resident at the Clinical Unit from 1 day before IMP administration (Day −1) until at least 72 hours after the last dose given on Day 16 (Day 19). Subjects are dosed for a total of 15 days, receiving a single QD morning dose of AZD5055 or placebo on Day 1 and on Days 3 through Day 16.
For cohorts with BID dosing regimens, the Screening Period is followed by a Treatment Period during which subjects are resident at the Clinical Unit from 1 day before IMP administration (Day −1) until at least 72 hours after the last dose given on Day 16 (Day 19).
Subjects are dosed for a total of 15 days, receiving a single morning dose of AZD5055 or placebo on Day 1 and Day 16, and repeated BID dosing on Day 3 through Day 15, 12 hours (±30 minutes) apart.
The study was conducted in healthy male and healthy female subjects of non-childbearing potential with suitable veins for cannulation or repeated venipuncture. […] Also, the subjects were aged 18 to 55 years inclusive for men and women in Part 1 and only men in Part 2. For female subjects in Part 2, the age range was 18 to 49 years inclusive.
In Part 1 of the study, 3 dose levels of AZD5055 were investigated in 3 cohorts. Each cohort included 8 subjects. Within each cohort, 6 subjects were randomized to receive AZD5055, and 2 subjects were randomized to receive placebo. In Part 2 of the study, 3 dose levels of AZD5055 were investigated in 3 cohorts. In each cohort, 9 subjects were randomized to receive AZD5055, and 3 subjects were randomized to receive placebo.
Primary PK parameters: Cmax, AUCinf, and AUClast; secondary PK parameters: including but not limited to tmax, AUC (0-12) or AUC (0-24) (the one not being the primary parameter), t1/2λz, MRTinf, CL/F, Vz/F, Rac, TCP, Ae(t1-t2), fe (t1-t2), and CLR.
No formal statistical hypothesis testing was performed. The analyses of safety, tolerability, PK, and PD data was summarized descriptively by treatment/dose/study day separately using appropriate descriptive statistics including tables, listings, and graphs, as appropriate. Preliminary dose proportionality of AZD5055 after single dose (Day 1) in Part 1 and 2 and multiple dose (Day 16) in Part 2 was assessed graphically and was analyzed using the power model approach with the logarithm of PK parameters (AUC and Cmax on Day 1) and (AUC(0-τ) and Cmax on Day 16) as the dependent variable and the logarithm of the dose as the independent variable. For data collected in Part 2, the time dependency of the PK was evaluated by comparing AUC(0-τ) (Day 16) with AUC (Day 1) and accumulation was evaluated by comparing AUC(0-τ) (Day 16) with AUC(0-τ) (Day 1) and Cmax (Day 16) with Cmax (Day 1). […]

[4] = tested on: renal fibrosis in a UUO model in mice; conditions: mice (Bunyard 2019); cited from earlier work
[5] = tested on: porcupine (PORCN); conditions: statement in words; cited from earlier work
[6] = excipient compatibility study; type: physicochemical
Text: In some embodiments, the diluent is a sugar or sugar-containing, except mannitol. For example, the diluent may be lactose, dextrin, glucose, sucrose, sorbitol. In some embodiments, the diluent is microcrystalline cellulose.
In some embodiments, the lubricant/glidant is glyceryl behenate.

Q: Which “Cmax after 20-minute IV infusion relative to oral dose” value ([1]; conservative estimate, after correcting for F) does the source give for `Cc1cc(-c2nccc3c2ccn3CC(=O)Nc2ccc(-c3cnccn3)cn2)ccn1` [AZD5055, 2-[4-(2-methyl-4-pyridyl)pyrrolo[3,2-c]pyridin-1-yl]-N-(5-pyrazin-2-yl-2-pyridyl)acetamide] here?
A: Its value is “less than 2 fold”.

Q: What about the “dose absorbed within 20 minutes” value ([1]; estimated from tmax of 1 hour, oral) of the same compound?
A: Its value is “approximately 75%”.

Q: And the pIC50 [2]?
A: The pIC50 was 9.19.

Q: And the “dose proportionality of exposure” value ([3]; 5 to 40 mg, single and multiple dose)?
A: The value was “increased approximately proportionally”.

Q: And the half-life ([3]; human, po, multiple daily administration)?
A: The half-life was 12.2 to 17.2 h.

Q: And the Tmax ([3]; human, po, multiple daily doses of 5 to 20 mg, read-out: tmax (medians))?
A: The Tmax was 1 to 1.3 h.

Q: What about the Tmax ([3]; human, po, observed, oral dose, read-out: tmax (time to Cmax)) of the same compound?
A: The Tmax was 1 h.

Q: What about the half-life ([3]; human, po, single administration) of the same compound?
A: Its half-life is 9.7 to 11.4 h.

Q: What about the dose excreted ([3]; human, urine, po, percent of dose administered, read-out: dose recovered unchanged in urine) of the same compound?
A: The dose excreted was < 2.3%.

Q: And the “between-subject variability in Cmax” value ([3]; low)?
A: The value was < 25%.

Q: What about the decline of concentrations ([3]; oral) of the same compound?
A: Its decline of concentrations is “declined in a bi-phasic manner”.

Q: What about the “renal clearance share of total clearance” value ([3]; oral) of the same compound?
A: Its value is “small share of AZD5055 total clearance”.

Q: And the absorption ([3]; oral suspension, single ascending doses of 7 to 40 mg)?
A: Its absorption is “rapidly absorbed”.

Q: And the accumulation ([3]; repeat daily administration)?
A: The accumulation was “Little to moderate accumulation”.

Q: What about the “renal fibrosis, UUO model” value [4] of the same compound?
A: Its value is “reduces”.

Q: And the “inhibition of the intracellular enzyme porcupine (PORCN)” value [5]?
A: Its value is “potent, and selective inhibitor”.

Q: And the “degradation products with silicon dioxide and magnesium stearate” value ([6]; glidant and lubricant respectively)?
A: The value was “additional amounts of degradation products were identified”.

Q: And the compatibility with mannitol ([6]; mannitol as diluent)?
A: Its compatibility with mannitol is “not compatible”.

Q: And the “degradation products with mannitol” value ([6]; mannitol as diluent)?
A: Its value is “additional amounts of degradation products were identified”.

Q: What about the “compatibility with silicon dioxide and magnesium stearate” value ([6]; silicon dioxide as glidant, magnesium stearate as lubricant) of the same compound?
A: Its value is “not compatible”.
